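Briefly, cells in 96-well plates were exposed to five compound concentrations for 48 h, and endpoints were estimated by linear interpolation. The concentration for 50% growth inhibition is given as GI50. TGI is the concentration that stops growth completely.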
How the values were obtained:
Test in all cases: NCI anticancer screen, dose series, 48 h
[1] = tested on: HCT-15 colon
[2] = tested on: MOLT-4 leukemia
[3] = tested on: RPMI-8226 leukemia
[4] = tested on: NCI-H226 lung
[5] = tested on: SNB-75 CNS
[6] = tested on: UACC-257 melanoma
[7] = tested on: SF-295 CNS
[8] = tested on: UO-31 renal
[9] = tested on: NCI-H23 lung
[10] = tested on: OVCAR-3 ovarian
[11] = tested on: SK-MEL-5 melanoma
[12] = tested on: SW-620 colon
[13] = tested on: ACHN renal
[14] = tested on: OVCAR-8 ovarian
[15] = tested on: SR leukemia
[16] = tested on: MCF7 breast
[17] = tested on: CCRF-CEM leukemia
[18] = tested on: EKVX NSCLC
[19] = tested on: M14 melanoma
[20] = tested on: HCT-116 colon
[21] = tested on: SK-OV-3 ovarian
[22] = tested on: OVCAR-4 ovarian
[23] = tested on: NCI-H522 lung
[24] = tested on: HOP-62 NSCLC
[25] = tested on: SN12C renal
[26] = tested on: COLO 205 colon
[27] = tested on: HT29 colon
[28] = tested on: MALME-3M melanoma
[29] = tested on: SK-MEL-2 melanoma
[30] = tested on: HCC-2998 colon
[31] = tested on: UACC-62 melanoma
[32] = tested on: MDA-MB-435
[33] = tested on: K-562 leukemia
[34] = tested on: U251 CNS
[35] = tested on: SK-MEL-28 melanoma
[36] = tested on: SF-539 CNS
[37] = tested on: 786-0 renal
[38] = tested on: PC-3 prostate
[39] = tested on: IGROV1 ovarian
[40] = tested on: A498 renal
[41] = tested on: NCI/ADR-RES ovarian
[42] = tested on: CAKI-1 renal
[43] = tested on: NCI-H460 lung
[44] = tested on: HOP-92 NSCLC
[45] = tested on: MDA-MB-231 breast
[46] = tested on: T-47D breast
[47] = tested on: LOX IMVI melanoma
[48] = tested on: HL-60(TB) leukemia
[49] = tested on: DU-145 prostate
[50] = tested on: SF-268 CNS
[51] = tested on: BT-549 breast
[52] = tested on: TK-10 renal
[53] = tested on: A549 NSCLC
[54] = tested on: OVCAR-5 ovarian
[55] = tested on: KM12 colon
[56] = tested on: SNB-19 CNS
[57] = tested on: HS 578T breast

With `CC(Nc1c(C#N)cnc2ccc(-c3cncc(-c4n[nH]c(=O)o4)c3)cc12)c1ccccc1` (centres undefined) the GI50 [1] was 3.06 µM, the TGI [1] was 13.2 µM and the GI50 [2] was 3.02 µM. The TGI [2] was 76 µM, the GI50 [3] was 2.52 µM and the TGI [3] was > 100 µM. The GI50 [4] was 2.56 µM, the TGI [4] was 13.8 µM and the GI50 [5] was 2.15 µM. The TGI [5] was 7.76 µM, the GI50 [6] was 4.48 µM and the TGI [6] was 22.5 µM. For the same compound, the GI50 [7] was 2.64 µM, the TGI [7] was 10.3 µM and the GI50 [8] was 1.77 µM. For the same compound, the TGI [8] was 8.79 µM, the GI50 [9] was 3.12 µM and the TGI [9] was 14.5 µM. It also gave a GI50 [10] of 1.92 µM, a TGI [10] of 5.47 µM and a GI50 [11] of 1.68 µM. For the same compound, the TGI [11] was 3.07 µM, the GI50 [12] was 3.39 µM and the TGI [12] was 18.9 µM. The GI50 [13] was 3.57 µM, the TGI [13] was 13.3 µM and the GI50 [14] was 3.63 µM. It also gave a TGI [14] of 32.9 µM, a GI50 [15] of 2.79 µM and a TGI [15] of 46.8 µM. For the same compound, the GI50 [16] was 2.64 µM, the TGI [16] was 15.8 µM and the GI50 [17] was 3.7 µM. The TGI [17] was > 100 µM, the GI50 [18] was 2.46 µM and the TGI [18] was 8.59 µM. It also gave a GI50 [19] of 3.87 µM, a TGI [19] of 33.4 µM and a GI50 [20] of 2.65 µM. For the same compound, the TGI [20] was 8.75 µM, the GI50 [21] was 4.51 µM and the TGI [21] was 28.3 µM. It also gave a GI50 [22] of 2.84 µM, a TGI [22] of 24.3 µM and a GI50 [23] of 3.31 µM. It also gave a TGI [23] of 16.2 µM, a GI50 [24] of 3.51 µM and a TGI [24] of 24.7 µM. It also gave a GI50 [25] of 2.73 µM, a TGI [25] of 13.7 µM and a GI50 [26] of 2.85 µM. It also gave a TGI [26] of 14.8 µM, a GI50 [27] of 3.66 µM and a TGI [27] of 31.1 µM. The GI50 [28] was 2.17 µM, the TGI [28] was 9.36 µM and the GI50 [29] was 2.24 µM. It also gave a TGI [29] of 6.66 µM, a GI50 [30] of 3.48 µM and a TGI [30] of 14.1 µM. It also gave a GI50 [31] of 1.96 µM, a TGI [31] of 4.87 µM and a GI50 [32] of 3.59 µM. The TGI [32] was 29.5 µM, the GI50 [33] was 4.42 µM and the TGI [33] was > 100 µM. For the same compound, the GI50 [34] was 2.36 µM, the TGI [34] was 14.4 µM and the GI50 [35] was 3.4 µM. For the same compound, the TGI [35] was 14.7 µM, the GI50 [36] was 2.53 µM and the TGI [36] was 10.3 µM. The GI50 [37] was 2.44 µM, the TGI [37] was 24.2 µM and the GI50 [38] was 3.25 µM. For the same compound, the TGI [38] was > 100 µM, the GI50 [39] was 1.55 µM and the TGI [39] was 4.77 µM. It also gave a GI50 [40] of 1.77 µM, a TGI [40] of 5.95 µM and a GI50 [41] of 20.2 µM. It also gave a TGI [41] of 81.4 µM, a GI50 [42] of 3.69 µM and a TGI [42] of 34.5 µM. The GI50 [43] was 3.2 µM, the TGI [43] was 14.9 µM and the GI50 [44] was 2 µM. It also gave a TGI [44] of 7.27 µM, a GI50 [45] of 2.15 µM and a TGI [45] of 9.65 µM. For the same compound, the GI50 [46] was 2.36 µM, the TGI [46] was > 100 µM and the GI50 [47] was 1.94 µM. For the same compound, the TGI [47] was 8.44 µM, the GI50 [48] was 8.19 µM and the TGI [48] was 72.5 µM. The GI50 [49] was 2.98 µM, the TGI [49] was 15.6 µM and the GI50 [50] was 2.62 µM. The TGI [50] was 9.88 µM, the GI50 [51] was 1.35 µM and the TGI [51] was 5.48 µM. The GI50 [52] was 3.83 µM, the TGI [52] was 44.6 µM and the GI50 [53] was 3.64 µM. For the same compound, the TGI [53] was 29.2 µM, the GI50 [54] was 3.6 µM and the TGI [54] was 22.9 µM. For the same compound, the GI50 [55] was 3.65 µM, the TGI [55] was 17.2 µM and the GI50 [56] was 2.77 µM. The TGI [56] was 14.6 µM, the GI50 [57] was 1.9 µM and the TGI [57] was 5.47 µM.

Source: PubChem BioAssay (NCI)
